Assay results taken from US12077503B2, “Substituted cyclic amides and their use as herbicides” (FMC CORPORATION, priority 2015, dated 2024).

Columns and labels:
Format in all cases: in vivo
[1] = test system: ivy-leaved morning glory (Ipomoea hederacea); experiment: Test G Pre-Emergence Protocol; conditions: Ipomoea, pre-emergence, 312 h, evaluated after 13 days; for pest or weed control at 15.625 g/ha: 15.625 g ai/ha; for pest or weed control at 15.625 g/ha / pest or weed control at 250 g/ha: read-out: Morningglory, Ivy-leaved damage rating (100=total damage to plant; 0=no damage to plant); for pest or weed control at 62.5 g/ha: 62.5 g ai/ha, 100=total damage to plant, 0=no damage to plant, read-out: Morningglory, Ivy-leaved damage rating; for pest or weed control at 250 g/ha: 250 g ai/ha
Method in brief: (§1)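 Glasshouse pre-emergence test: soil-sown seeds, sprayed after 1 d at 15.625, 62.5 or 250 g/ha. Conditions 24/16° C day/night, 14 h light, 65% humidity, watering twice daily. Rating 13 d post-spray (100 = total damage).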

[2] = test system: velvetleaf (Abutilon theophrasti); experiment: Test G Pre-Emergence Protocol; conditions: Abutilon theophrasti, pre-emergence, 312 h, evaluated after 13 days; for pest or weed control at 15.625 g/ha: 15.625 g ai/ha; for pest or weed control at 15.625 g/ha / pest or weed control at 250 g/ha: read-out: Velvetleaf damage rating (100=total damage to plant; 0=no damage to plant); for pest or weed control at 62.5 g/ha: 62.5 g ai/ha, 100=total damage to plant, 0=no damage to plant, read-out: Velvetleaf damage rating; for pest or weed control at 250 g/ha: 250 g ai/ha
Method in brief: as §1

corn (Zea mays) [3] = experiment: Test G Pre-Emergence Protocol; conditions: Zea mays, pre-emergence, 312 h, evaluated after 13 days; for plant injury at 15.625 g/ha: 15.625 g ai/ha; for plant injury at 15.625 g/ha / plant injury at 250 g/ha: read-out: Corn damage rating (100=total damage to plant; 0=no damage to plant); for plant injury at 62.5 g/ha: 62.5 g ai/ha, 100=total damage to plant, 0=no damage to plant, read-out: Corn damage rating; for plant injury at 250 g/ha: 250 g ai/ha
Method in brief: as §1

[4] = test system: giant foxtail (Setaria faberi); experiment: Test G Pre-Emergence Protocol; conditions: Setaria faberi, pre-emergence, 312 h, evaluated after 13 days; for pest or weed control at 15.625 g/ha: 15.625 g ai/ha; for pest or weed control at 15.625 g/ha / pest or weed control at 250 g/ha: read-out: Foxtail, Giant damage rating (100=total damage to plant; 0=no damage to plant); for pest or weed control at 62.5 g/ha: 62.5 g ai/ha, 100=total damage to plant, 0=no damage to plant, read-out: Foxtail, Giant damage rating; for pest or weed control at 250 g/ha: 250 g ai/ha
Method in brief: as §1

[5] = test system: redroot pigweed (Amaranthus retroflexus); experiment: Test G Pre-Emergence Protocol; conditions: Amaranthus retroflexus, pre-emergence, 312 h, evaluated after 13 days; for pest or weed control at 15.625 g/ha: 15.625 g ai/ha; for pest or weed control at 15.625 g/ha / pest or weed control at 250 g/ha: read-out: Pigweed, Redroot damage rating (100=total damage to plant; 0=no damage to plant); for pest or weed control at 62.5 g/ha: 62.5 g ai/ha, 100=total damage to plant, 0=no damage to plant, read-out: Pigweed, Redroot damage rating; for pest or weed control at 250 g/ha: 250 g ai/ha
Method in brief: as §1

[6] = test system: barnyardgrass (Echinochloa crus-galli); experiment: Test G Pre-Emergence Protocol; conditions: Echinochloa crus-galli, pre-emergence, 312 h, evaluated after 13 days; for pest or weed control at 15.625 g/ha: 15.625 g ai/ha; for pest or weed control at 15.625 g/ha / pest or weed control at 250 g/ha: read-out: Barnyardgrass damage rating (100=total damage to plant; 0=no damage to plant); for pest or weed control at 62.5 g/ha: 62.5 g ai/ha, 100=total damage to plant, 0=no damage to plant, read-out: Barnyardgrass damage rating; for pest or weed control at 250 g/ha: 250 g ai/ha
Method in brief: as §1

[7] = test system: ivy-leaved morning glory (Ipomoea hederacea); experiment: Test G Post-Emergence Protocol; conditions: Ipomoea, post-emergence, 312 h, read-out: Morningglory, Ivy-leaved damage rating; for pest or weed control at 15.625 g/ha: 15.625 g ai/ha, evaluated after 13 days (100=total damage to plant; 0=no damage to plant); for pest or weed control at 62.5 g/ha: 62.5 g ai/ha; for pest or weed control at 62.5 g/ha / pest or weed control at 250 g/ha: evaluated after 13 days, 100=total damage to plant, 0=no damage to plant; for pest or weed control at 250 g/ha: 250 g ai/ha
Method in brief: (§2)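 Scores run 0 (no damage) to 100 (total damage) and were taken 13 days after spraying. Plants had been raised in pots for 8 days under glasshouse control (24/16 °C, 14 h photoperiod, 65% humidity) and then treated at 15.625, 62.5 or 250 g/ha.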

[8] = test system: velvetleaf (Abutilon theophrasti); experiment: Test G Post-Emergence Protocol; conditions: Abutilon theophrasti, post-emergence, 312 h, read-out: Velvetleaf damage rating; for pest or weed control at 15.625 g/ha: 15.625 g ai/ha, evaluated after 13 days (100=total damage to plant; 0=no damage to plant); for pest or weed control at 62.5 g/ha: 62.5 g ai/ha; for pest or weed control at 62.5 g/ha / pest or weed control at 250 g/ha: evaluated after 13 days, 100=total damage to plant, 0=no damage to plant; for pest or weed control at 250 g/ha: 250 g ai/ha
Method in brief: as §2

corn (Zea mays) [9] = experiment: Test G Post-Emergence Protocol; conditions: Zea mays, post-emergence, 312 h, read-out: Corn damage rating; for plant injury at 15.625 g/ha: 15.625 g ai/ha, evaluated after 13 days (100=total damage to plant; 0=no damage to plant); for plant injury at 62.5 g/ha: 62.5 g ai/ha; for plant injury at 62.5 g/ha / plant injury at 250 g/ha: evaluated after 13 days, 100=total damage to plant, 0=no damage to plant; for plant injury at 250 g/ha: 250 g ai/ha
Method in brief: as §2

[10] = test system: giant foxtail (Setaria faberi); experiment: Test G Post-Emergence Protocol; conditions: Setaria faberi, post-emergence, 312 h, read-out: Foxtail, Giant damage rating; for pest or weed control at 15.625 g/ha: 15.625 g ai/ha, evaluated after 13 days (100=total damage to plant; 0=no damage to plant); for pest or weed control at 62.5 g/ha: 62.5 g ai/ha
Method in brief: as §2

[11] = test system: redroot pigweed (Amaranthus retroflexus); experiment: Test G Post-Emergence Protocol; conditions: Amaranthus retroflexus, post-emergence, 312 h, read-out: Pigweed, Redroot damage rating; for pest or weed control at 15.625 g/ha: 15.625 g ai/ha, evaluated after 13 days (100=total damage to plant; 0=no damage to plant); for pest or weed control at 62.5 g/ha: 62.5 g ai/ha; for pest or weed control at 62.5 g/ha / pest or weed control at 250 g/ha: evaluated after 13 days, 100=total damage to plant, 0=no damage to plant; for pest or weed control at 250 g/ha: 250 g ai/ha
Method in brief: as §2

[12] = test system: barnyardgrass (Echinochloa crus-galli); experiment: Test G Post-Emergence Protocol; conditions: Echinochloa crus-galli, post-emergence, 312 h, read-out: Barnyardgrass damage rating; for pest or weed control at 15.625 g/ha: 15.625 g ai/ha, evaluated after 13 days (100=total damage to plant; 0=no damage to plant); for pest or weed control at 62.5 g/ha: 62.5 g ai/ha; for pest or weed control at 62.5 g/ha / pest or weed control at 250 g/ha: evaluated after 13 days, 100=total damage to plant, 0=no damage to plant; for pest or weed control at 250 g/ha: 250 g ai/ha
Method in brief: as §2

[13] = evaluated after 13 days, 100=total damage to plant, 0=no damage to plant

Row | SMILES | pest or weed control at 15.625 g/ha [1] [%] | pest or weed control at 62.5 g/ha [1] [%] | pest or weed control at 250 g/ha [1] [%] | pest or weed control at 15.625 g/ha [2] [%] | pest or weed control at 62.5 g/ha [2] [%] | pest or weed control at 250 g/ha [2] [%] | plant injury at 15.625 g/ha (corn (Zea mays) [3]) [%] | plant injury at 62.5 g/ha (corn (Zea mays) [3]) [%] | plant injury at 250 g/ha (corn (Zea mays) [3]) [%] | pest or weed control at 15.625 g/ha [4] [%] | pest or weed control at 62.5 g/ha [4] [%] | pest or weed control at 250 g/ha [4] [%] | pest or weed control at 15.625 g/ha [5] [%] | pest or weed control at 62.5 g/ha [5] [%] | pest or weed control at 250 g/ha [5] [%] | pest or weed control at 15.625 g/ha [6] [%] | pest or weed control at 62.5 g/ha [6] [%] | pest or weed control at 250 g/ha [6] [%] | pest or weed control at 15.625 g/ha [7] [%] | pest or weed control at 62.5 g/ha [7] [%] | other results
1 | COC(=O)c1cc([C@H]2CN(C)C(=O)[C@@H]2C(=O)Nc2ccccc2F)ccc1F (racemic) [Compound 1682] | 0 | 0 | 0 | 0 | 0 | 0 | 0 | 0 | 0 | 0 | 0 | 0 | 0 | 0 | 0 | 0 | 0 | 0 | 0 | 0 | pest or weed control at 250 g/ha [7]: 0%; pest or weed control at 15.625 g/ha [8]: 0%; pest or weed control at 62.5 g/ha [8]: 0%; pest or weed control at 250 g/ha [8]: 0%; plant injury at 15.625 g/ha (corn (Zea mays) [9]): 0%; plant injury at 62.5 g/ha (corn (Zea mays) [9]): 0%; plant injury at 250 g/ha (corn (Zea mays) [9]): 0%; pest or weed control at 15.625 g/ha [10]: 0%; pest or weed control at 62.5 g/ha [10, 13]: 0%; pest or weed control at 15.625 g/ha [11]: 0%; pest or weed control at 62.5 g/ha [11]: 0%; pest or weed control at 250 g/ha [11]: 0%; pest or weed control at 15.625 g/ha [12]: 0%; pest or weed control at 62.5 g/ha [12]: 0%; pest or weed control at 250 g/ha [12]: 0%
2 | CN1C[C@H](c2ccc(C(F)(F)F)cc2)[C@@H](C(=O)Nc2cnccc2S(C)(=O)=O)C1=O (racemic) [Compound 1746] | 0 | 0 | 10 | 0 | 0 | 10 | 0 | 0 | 0 | 0 | 20 | 70 | 0 | 0 | 20 | 0 | 0 | 50 | 0 | 10 | pest or weed control at 250 g/ha [7]: 60%; pest or weed control at 15.625 g/ha [8]: 0%; pest or weed control at 62.5 g/ha [8]: 0%; pest or weed control at 250 g/ha [8]: 10%; plant injury at 15.625 g/ha (corn (Zea mays) [9]): 0%; plant injury at 62.5 g/ha (corn (Zea mays) [9]): 0%; plant injury at 250 g/ha (corn (Zea mays) [9]): 10%; pest or weed control at 15.625 g/ha [10]: 0%; pest or weed control at 62.5 g/ha [10, 13]: 10%; pest or weed control at 250 g/ha ([10]; 250 g ai/ha, evaluated after 13 days, 100=total damage to plant, 0=no damage to plant): 70%; pest or weed control at 15.625 g/ha [11]: 0%; pest or weed control at 62.5 g/ha [11]: 20%; pest or weed control at 250 g/ha [11]: 20%; pest or weed control at 15.625 g/ha [12]: 0%; pest or weed control at 62.5 g/ha [12]: 0%; pest or weed control at 250 g/ha [12]: 40%
